This passage reports T/C results from PubChem BioAssay AID330 (DTP/NCI, 2004).

The subject of this test is P388 leukemia ip, CD2F1 mice, survival T/C. Nature of the test: NCI In Vivo Anticancer Drug Screen. Data for tumor model P388 Leukemia (intraperitoneal) in CD2F1 (CDF1) mice. The conditions noted are these: endpoint: median survival time, higher = longer survival. In short, it runs like this:
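Mice carrying the transplanted tumor received test compound or vehicle. Survival was recorded in each group, and the value is the treated-group measurement divided by that of the vehicle-treated control group.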

[1] abbreviates: dose: 50.0 mg/kg/injection, schedule: Q01DX005 (ip), vehicle: Klucel (hydroxypropylcellulose) (HPC).
The mark [2] stands for this setting: dose: 100.0 mg/kg/injection, schedule: Q01DX005 (ip), vehicle: Klucel (hydroxypropylcellulose) (HPC).
The mark [3] stands for this setting: dose: 200.0 mg/kg/injection, schedule: Q01DX005 (ip), vehicle: Klucel (hydroxypropylcellulose) (HPC).
Where [4] appears, read: dose: 30.0 mg/kg/injection, schedule: Q01DX005 (ip), vehicle: Klucel (hydroxypropylcellulose) (HPC).
Where [5] appears, read: dose: 60.0 mg/kg/injection, schedule: Q01DX005 (ip), vehicle: Klucel (hydroxypropylcellulose) (HPC).
[6] abbreviates: dose: 50.0 mg/kg/injection, schedule: Q01DX009 (ip), vehicle: saline with Tween-80.
[7] abbreviates: dose: 100.0 mg/kg/injection, schedule: Q01DX009 (ip), vehicle: saline with Tween-80.
Setting [8] is: dose: 200.0 mg/kg/injection, schedule: Q01DX009 (ip), vehicle: saline with Tween-80.
Where [9] appears, read: dose: 50.0 mg/kg/injection, schedule: Q01DX005 (ip), vehicle: saline with Tween-80.
Setting [10] is: dose: 100.0 mg/kg/injection, schedule: Q01DX005 (ip), vehicle: saline with Tween-80.
Setting [11] is: dose: 12.5 mg/kg/injection, schedule: Q01DX009 (ip), vehicle: saline with Tween-80.
[12] abbreviates: dose: 25.0 mg/kg/injection, schedule: Q01DX009 (ip), vehicle: saline with Tween-80.
[13] abbreviates: dose: 25.0 mg/kg/injection, schedule: Q01DX009 (ip), vehicle: saline.
Setting [14] is: dose: 50.0 mg/kg/injection, schedule: Q01DX009 (ip), vehicle: saline.
[15] abbreviates: dose: 200.0 mg/kg/injection, schedule: Q01DX009 (ip), vehicle: saline.
Setting [16] is: dose: 200.0 mg/kg/injection, schedule: Q01DX005 (ip), vehicle: saline with Tween-80.
The mark [17] stands for this setting: dose: 100.0 mg/kg/injection, schedule: Q01DX009 (ip), vehicle: saline.
[18] abbreviates: dose: 120.0 mg/kg/injection, schedule: Q01DX005 (ip), vehicle: Klucel (hydroxypropylcellulose) (HPC).
Setting [19] is: dose: 240.0 mg/kg/injection, schedule: Q01DX005 (ip), vehicle: Klucel (hydroxypropylcellulose) (HPC).

The structures appear in SMILES notation. Values joined by “and” are separate entries in the source; they are usually repeats but may differ in a detail not shown here. Identical values can stand only once. Inconclusive results and toxic doses are left out.

For `COc1ccc(C(=O)c2c(OC)cccc2C(=O)O)cc1`, the T/C under setting [1] is 105 % of control, the T/C under setting [2] was 105 % of control and the T/C under setting [3] is 97 % of control.

On to `COC(=O)/C=C/c1cc(=O)n2c(nc3ccccc32)s1`, for which the T/C is, setting by setting: (dose: 15.0 mg/kg/injection, schedule: Q01DX005 (ip), vehicle: Klucel (hydroxypropylcellulose) (HPC)) 100 % of control; under setting [4], 89 % of control; under setting [5], 86 % of control.

For `Cc1nnc(NS(=O)(=O)c2ccc(N=Nc3cc(N=Nc4ccc(S(=O)(=O)Nc5nnc(C)s5)cc4)c4c(NC(=O)C(Cl)Cl)cccc4c3OC(=O)C(Cl)Cl)cc2)s1` (tested in a mixture with another compound), the T/C is 111 % of control (dose: 3.12 mg/kg/injection, schedule: Q01DX009 (ip), vehicle: Klucel (hydroxypropylcellulose) (HPC)); 116 % of control (dose: 6.25 mg/kg/injection, schedule: Q01DX009 (ip), vehicle: Klucel (hydroxypropylcellulose) (HPC)); 109 % of control (dose: 6.25 mg/kg/injection, schedule: Q01DX009 (ip), vehicle: saline with Tween-80); 120 % of control (dose: 12.5 mg/kg/injection, schedule: Q01DX009 (ip), vehicle: Klucel (hydroxypropylcellulose) (HPC)); 99 % of control and 97 % of control under setting [6]; 100 % of control under setting [7]. Moreover, the T/C under setting [8] is 98 % of control.

For `Cc1c(C(=O)c2ccc3c(c2)OCO3)ccc2c1OCO2`, the T/C by setting is: under setting [1], 105 % of control; under setting [2], 105 % of control; under setting [3], 98 % of control.

`O=[N+]([O-])c1ccc(N=Nc2ccc(NNc3ccc([N+](=O)[O-])cn3)c3cc4ccccc4cc23)nc1`: the T/C was 100 % of control under setting [9] and 110 % of control under setting [10].

In the case of `CC(=O)Nc1cccc2c1C(=O)OC2=O`, the T/C runs as follows: under setting [6], 100 % of control; under setting [7], 109 % of control; under setting [8], 108 % of control; (dose: 400.0 mg/kg/injection, schedule: Q01DX009 (ip), vehicle: saline with Tween-80) 102 % of control.

Turning to `c1ccc2c(c1)ccc1cc3cccc[n+]3cc12`, the T/C is 92 % of control (dose: 0.5 mg/kg/injection, schedule: Q01DX009 (ip), vehicle: saline); 103 % of control (dose: 1.0 mg/kg/injection, schedule: Q01DX009 (ip), vehicle: saline); 92 % of control (dose: 2.0 mg/kg/injection, schedule: Q01DX009 (ip), vehicle: saline).

Take `N=c1c2c(ncn1Cc1ccccc1)CCN(Cc1ccccc1)C2`: the T/C runs as follows: under setting [11], 101 % of control; under setting [12], 100 % of control and 114 % of control; under setting [6], 104 % of control; under setting [7], 112 % of control.

Turning to `COc1cccc2cc(C)[nH]c12`, the T/C runs as follows: under setting [12], 97 % of control; under setting [6], 97 % of control; under setting [7], 103 % of control.

`O=Cc1ccccc1/C=C/C(=O)/C=C/c1ccccc1C=O`: the T/C runs as follows: (dose: 12.5 mg/kg/injection, schedule: Q01DX005 (ip), vehicle: Klucel (hydroxypropylcellulose) (HPC)) 105 % of control; (dose: 25.0 mg/kg/injection, schedule: Q01DX005 (ip), vehicle: Klucel (hydroxypropylcellulose) (HPC)) 105 % of control; under setting [1], 107 % of control and 110 % of control.

Turning to `O=CC=O`, the T/C runs as follows: under setting [13], 98 % of control; under setting [6], 116 % of control; under setting [14], 120 % of control; under setting [8], 152 % of control; under setting [15], 88 % of control.

Turning to `CCC[As](CCC)SC1OC(COC(C)=O)C(OC(C)=O)C(OC(C)=O)C1OC(C)=O` (stereo not drawn), the T/C was 117 % of control and 88 % of control under setting [6]; 107 % of control and 92 % of control under setting [7]; 110 % of control and 124 % of control under setting [8].

In the case of `C=C/C=C/NC(=O)OCc1ccccc1`, the T/C by setting is: under setting [6], 100 % of control; under setting [7], 105 % of control; under setting [8], 102 % of control.

Consider `C[n+]1c(-c2cc(C(F)(F)F)cc(C(F)(F)F)c2)c2cc(N)ccc2c2ccc(N)cc21`, for which the T/C is 110 % of control (dose: 2.5 mg/kg/injection, schedule: Q01DX009 (ip), vehicle: water); 115 % of control (dose: 5.0 mg/kg/injection, schedule: Q01DX009 (ip), vehicle: water); 118 % of control (dose: 10.0 mg/kg/injection, schedule: Q01DX009 (ip), vehicle: water); 158 % of control under setting [11]; 152 % of control (dose: 20.0 mg/kg/injection, schedule: Q01DX009 (ip), vehicle: water); 166 % of control under setting [12]. Further, the T/C under setting [6] was 196 % of control and the T/C (dose: 80.0 mg/kg/injection, schedule: Q01DX009 (ip), vehicle: water) is 111 % of control.

Regarding `CC1(C)Cc2nc3ccccc3nc2-c2ccccc21`, the T/C runs as follows: under setting [9], 101 % of control; under setting [10], 98 % of control; under setting [16], 100 % of control.

With `CCN(Cc1cccc(S(=O)(=O)O)c1)c1ccc(C(=C2C=CC(=[N+](CC)Cc3cccc(S(=O)(=O)O)c3)C=C2)c2ccc(O)c(S(=O)(=O)O)c2)cc1`, the T/C was 97 % of control under setting [9], 99 % of control under setting [10] and 100 % of control under setting [16].

`CSC(=S)N/N=C(\C)c1ccccn1`: the T/C is, setting by setting: under setting [14], 92 % of control; under setting [17], 92 % of control; under setting [15], 99 % of control; (dose: 400.0 mg/kg/injection, schedule: Q01DX009 (ip), vehicle: saline) 106 % of control.

Turning to `O=C(NC(=O)c1ccc(F)c(Cl)c1)NC1CC1`, the T/C under setting [5] was 100 % of control, the T/C under setting [18] is 102 % of control and the T/C under setting [19] is 93 % of control.

On to `CS(=O)(=O)O/C=C1\CCc2ccccc2C1=O`, for which the T/C was 98 % of control under setting [9], 98 % of control under setting [10] and 105 % of control under setting [16].

As for `CC(=O)OCC#CCN1CCOCC1`, the T/C is, setting by setting: (dose: 50.0 mg/kg/injection, schedule: Q01DX005 (ip), vehicle: saline) 124 % of control; (dose: 60.0 mg/kg/injection, schedule: Q01DX005 (ip), vehicle: suspension in saline) 102 % of control; (dose: 120.0 mg/kg/injection, schedule: Q01DX005 (ip), vehicle: suspension in saline) 100 % of control.

On to `CC(O)C(=O)O` (stereo not drawn), for which the T/C was 98 % of control and 100 % of control (dose: 0.06 % in 0.5 ml injection vol, schedule: Q01DX009 (ip), vehicle: water); 107 % of control and 95 % of control (dose: 0.12 % in 0.5 ml injection vol, schedule: Q01DX009 (ip), vehicle: water); 93 % of control (dose: 0.25 % in 0.5 ml injection vol, schedule: Q01DX009 (ip), vehicle: water); 99 % of control and 100 % of control (dose: 0.5 % in 0.5 ml injection vol, schedule: Q01DX009 (ip), vehicle: water); 100 % of control (dose: 4.0 % in 0.5 ml injection vol, schedule: Q01DX009 (ip), vehicle: water); 99 % of control and 100 % of control (dose: 8.0 % in 0.5 ml injection vol, schedule: Q01DX009 (ip), vehicle: water).

In the case of `CC1c2ccccc2NC(=O)N1N1CCOCC1` (stereo not drawn), the T/C is, setting by setting: under setting [1], 96 % of control; under setting [2], 93 % of control; under setting [3], 97 % of control.

Turning to `Nc1ccc(S(=O)(=O)NC(CSSCC(NS(=O)(=O)c2ccc(N)cc2)C(=O)O)C(=O)O)cc1` (stereo not drawn), the T/C runs as follows: under setting [1], 110 % of control; under setting [2], 101 % of control; under setting [3], 113 % of control.

For `COc1ccc(/C=C2/C(=O)N(c3ccccc3)N=C2C)c(OC)c1`, the T/C was 91 % of control under setting [4]; 88 % of control and 95 % of control under setting [5]; 94 % of control under setting [18]; 86 % of control under setting [19].

In the case of `CC(C)(C)N=C(c1ccccc1)N1CCCCC1`, the T/C was 100 % of control under setting [6] and 90 % of control under setting [7].

As for `CCOC(=O)/C(=C(\C)N)C1CC(=O)NC1=O` (stereo not drawn), the T/C by setting is: under setting [13], 104 % of control; under setting [14], 104 % of control; under setting [17], 101 % of control; under setting [15], 107 % of control.

With `O=C1C(C2(O)C(=O)Nc3ccccc32)CCCC1C1(O)C(=O)Nc2ccccc21` (stereo not drawn), the T/C under setting [5] was 90 % of control, the T/C under setting [18] was 87 % of control and the T/C under setting [19] was 89 % of control.
